One assay has as its target T1, AMPK-γ2 CBS3-4 construct (Homo sapiens, UniProt Q9UGJ0).
T1 construct: the C-terminal pair (CBS3-4, residues 430-556); made in house; host or cells: E. coli BL21 (DE3), vector pGEX-KG
Kind of assay: Displacement of AMP by AMP-S (competitive binding assay). Here is the method:
(§1) Various concentrations of [^14C]-AMP, [γ^32P] […] Reactions were stopped by spotting 10 ìl onto a Millipore MF Filter Membrane disc and rapidly washing under high vacuum with 1 ml of ice-cold TBS. Radioactivity was determined on the filters by scintillation counting. Non-specific binding (which was trivial) was determined by performing the assay with GST as a control, and was subtracted. […] Data were fitted to the binding models given in the text, using GraphPad Prism 3. Estimates of parameters resulting from fits are quoted in the text and Table 1±standard error, and the curves shown in figures are theoretical curves obtained using those estimates.

The test system of the next assay is AMPK. Description: Activation of AMPK (data not shown). The assay is classed as biochemical. The settings on record: read-out: concentration giving half-maximal activation.
For assay [1], the target named is cystathionine â-synthase D444N mutant (Homo sapiens, UniProt P35520, D444N). The settings on record: concentrations of SAM up to 300 μM; cited from earlier work.
The target of assay [2] is T2, cystathionine â-synthase CBS domain pair D444N (Homo sapiens, UniProt P35520, D444N).
T2 construct: 416-551 of cystathionine â-synthase; made in house; host or cells: E. coli BL21 (DE3)
Kind of assay: Filter binding assay, GST-CBS domain fusion.
Excerpt: (§2) Finally, DNA encoding the C-terminal CBS domain pair from the enzyme cystathionine â-synthase was cloned and expressed.
(§3) For IMPDH2, DNAs encoding residues 112-232 or the full-length protein (1-514) were amplified using human liver cDNA (Clontech) as template, and cloned into pHAT20 (Clontech) using 5′-AgeI and 3′-KpnI sites added to the primers. For the other constructs, DNAs encoding residues 582-840 of CLC2, or 416-551 of cystathionine â-synthase, were amplified using human liver cDNA as template, and cloned into pGEX-KG as above using 5′-BamHI and 3′-XhoI sites added to the primers. All mutations were created using the Stratagene QuikChange Site-directed Mutagenesis system.
as §1

Assay [3] addresses T3, cystathionine â-synthase CBS1-2 (WT) (Homo sapiens, UniProt P35520).
T3 construct: 416-551 of cystathionine â-synthase; made in house; host or cells: E. coli BL21 (DE3)
Kind of assay: Filter binding assay, GST-CBS domain fusion. The settings on record: single-site model.
Excerpt: as §2, §3, §1

Assay [4] deals with wild type cystathionine â-synthase (Homo sapiens, UniProt P35520). The settings on record: read-out: half-maximal effect (activation); cited from earlier work.

T1 sequence (Q9UGJ0 430-556): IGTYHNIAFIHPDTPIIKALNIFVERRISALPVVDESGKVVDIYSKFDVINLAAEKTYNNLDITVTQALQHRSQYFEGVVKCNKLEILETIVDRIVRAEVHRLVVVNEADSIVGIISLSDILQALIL

The term Kd denotes the free concentration of one partner at which half of the binding sites on the other are occupied at equilibrium, for simple one-to-one binding. For the compound `Nc1ncnc2c1ncn2[C@@H]1O[C@H](COP(O)(O)=S)[C@@H](O)[C@H]1O` [AMP-S, adenosine 5′-O-monothiophosphate], the “Kd fold lower than the Kd of CBS3-4 for AMP” value at AMPK-γ2 CBS3-4 construct turned out to be 2 fold. The Kd on AMPK-γ2 CBS3-4 construct (read-out: Kd from single site competitive binding model) worked out at 48 ± 12 µM. Also, in the assay with AMPK, the EC50 was 3.1 µM.
As to `C[S+](CC[C@H](N)C(=O)O)C[C@H]1O[C@@H](n2cnc3c(N)ncnc32)[C@H](O)[C@@H]1O` (some centres unmarked) [S-adenosyl methionine], the activation result in assay [1] is listed as “not significantly activated”. In addition, the “increase in Kd relative to wild type” value in assay [2] was 15 fold. Also, the Kd in assay [2] (single-site model) was 510 ± 70 µM; in assay [3] it was 34 µM. Also, the EC50 in assay [4] is approximately 20 µM.

(Values after US20050202511A1, “AMP-activated protein kinase (AMPK) inhibitor screening assay” (priority 2002, published 2005).)
